Results on 2 compounds are retold here after PMC3596113 (Clinical cancer research : an official journal of the …, 2012).

The subject of experiment [1] is phosphorylation of histone H2Ax in leukemia blast cells. Briefly: H2Ax phosphorylation in marrow blasts. Format: in vivo, human.
The test system of experiment [2] is relapsed and refractory acute leukemias.
For experiment [3], the system named is Chk2. The note with it: cited from earlier work.
The subject of experiment [4] is CDK1. The note with it: cited from earlier work.
Setting [5] is: AML patient 49, dose level 1, Ref.
The mark [6] stands for this setting: AML patient 73, dose level 5, Relapse 66 mo.
Where [7] appears, read: Total, 24 adults, all dose levels.
[8] abbreviates: dose level 1, 10 mg/m^2 (n = 3) + cytarabine.
Where [9] appears, read: dose level 2, 20 mg/m^2 (n = 3) + cytarabine.
The mark [10] stands for this setting: dose level 4, 56 mg/m^2 (n = 6) + cytarabine.
The mark [11] stands for this setting: dose level 5, 140 mg (n = 6) + cytarabine.

Like-named read-outs stand apart in the source and are kept apart here. Marks after values point to notes of the source that are not given here.

Turning to `Cn1cc(-c2cnn3c(N)c(Br)c([C@@H]4CCCNC4)nc23)cn1` [SCH 900776], in experiment [1] (patients treated with 40 mg/m^2 SCH 900776 or higher), the “Sets of samples with enhanced H2Ax phosphorylation” value is on record as 3 of 5. The “Response rate (CR plus CRi)” value in experiment [2] (1 CRi of 6 patients at SCH 900776 doses ≤ 20 mg/m^2) is 17%; in experiment [2] (7 (5 CR, 2 CRi) of 18 patients at dose level 3 (40 mg/m^2) or higher), 39%; in experiment [2] (at least 2 of 6 in each of dose levels 3 through 5), not below 33%. Also, the CR/CRi rate is given as 20% in experiment [2] (2 of 10 patients with AML with adverse cytogenetics), 20% in experiment [2] (2 of 10 patients with a complex karyotype), 38% in experiment [2] (3 of 8 with secondary AML) and 50% in experiment [2] (4/8 with relapsed AML). Besides, the “CR/CRi rate in patients with AML” value in experiment [2] (8 of 21 patients with AML) amounted to 38%. The “Overall response rate (CR plus CRi)” value in experiment [2] (8 of 24 patients, all dose levels) came to 33%. Also, the “Complete tumor clearance (CTC) by day 14, rate” value in experiment [2] (12 of 24 patients, all dose levels) is given as 50%; in experiment [2] (at least 3 of 6 per level beginning at dose level 3 (40 mg/m^2)), not below 50%. The “DFS (mo)” value in experiment [2] (AML patient 25, dose level 3, Relapse 7 mo) is reported as 25.2+ mo; in experiment [2] (setting [5]), 2.0 mo; in experiment [2] (AML patient 52, dose level 3, primary Ref), 2.2 mo; in experiment [2] (AML patient 55, dose level 3, primary Ref), 11.3 mo; in experiment [2] (AML patient 60, dose level 4, Relapse 8 mo), 22.4+ mo; in experiment [2] (AML patient 61, dose level 5, Relapse 19 mo) it was 18.1+ mo. Besides, the “DFS (mo)” value worked out at 9.7 mo in experiment [2] (AML patient 70, dose level 4, primary Ref) and 0.2 mo in experiment [2] (setting [6]). Moreover, the “Response (CR/CRi)” value in experiment [2] (setting [5]) and in experiment [2] (setting [6]) was “CRi” in each case. The “Day 14 CTC (patients)” value is recorded as 12 in experiment [2] (setting [7]); 1 in experiment [2] (setting [8]); 1 in experiment [2] (setting [9]); 4 in experiment [2] (dose level 3, 40 mg/m^2 (n = 6) + cytarabine); 3 in experiment [2] (setting [10]); 3 in experiment [2] (setting [11]). The “Response (CR/CRi) (patients)” value in experiment [2] (setting [7]) is given as 8 (5/3): all AML; in experiment [2] (setting [8]), 1 (0/1): AML; in experiment [2] (setting [9]), 0 (0/0); in experiment [2] (setting [10]), 2 (2/0): both AML; in experiment [2] (setting [11]), 2 (1/1): both AML. Also, the “Response in pts with prior cytarabine” value in experiment [2] (Total, 24 adults, high = prior 2 g/m^2/72 h infusion or high-dose cytarabine) was 7 (6 high); in experiment [2] (dose level 1, 10 mg/m^2 (n = 3), high = prior 2 g/m^2/72 h infusion or high-dose cytarabine), 1 (high) ^a; in experiment [2] (dose level 2, 20 mg/m^2 (n = 3)), 0; in experiment [2] (dose level 3, 40 mg/m^2 (n = 6), high = prior 2 g/m^2/72 h infusion or high-dose cytarabine), 2 (both high); in experiment [2] (dose level 4, 56 mg/m^2 (n = 6), high = prior 2 g/m^2/72 h infusion or high-dose cytarabine), 2 (1 high); in experiment [2] (dose level 5, 140 mg (n = 6), high = prior 2 g/m^2/72 h infusion or high-dose cytarabine) it was 2 (both high). Besides, the “Median duration of response” value in experiment [2] (all patients with CR/CRi, range 0.2–27+) was determined as 10 months. Further, the Responders remaining alive in experiment [2] (as of June 1, 2012, at 19+ to 30.5+ months) is 5 of the 8. Besides, the “CR/CRi in patients who had day 14 CTC” value in experiment [2] (human, in vivo) is 8 of the 12. For the same compound, the “CR/CRi in patients who had residual leukemia on day 14” value in experiment [2] (human, in vivo) was “none”. Also, the CR/CRi entry in experiment [2] (patients with FLT3-ITD AML) is on record as “none”. For the same compound, the “Effect on Chk2” value in experiment [3] is “without substantial effect”. Further, in experiment [4], the “Effect on CDK1” value was “without substantial effect”.

As to `Nc1ccn([C@@H]2O[C@H](CO)[C@@H](O)[C@@H]2O)c(=O)n1` [cytarabine, reference compound], the “Samples with increase in H2Ax phosphorylation” value in experiment [1] (marrow blasts, after 24 hours of continuous cytarabine infusion, before SCH 900776 (day 2)) is 2 of 10.
